Data set [1] is described as follows: Plasma PK of comparative compound without sulfur moiety in male CD1 mice. As to conditions: Mesylate Salt. The class given is in vivo, mouse. The procedure: Formulation: 10% DMSO, 90% Saline
Dosing: 10 mg/kg P.O. and 5 mg/kg I.V.

The next data set concerns the target T1, PI3K p110α (Homo sapiens, UniProt P42336).
T1 construct: assay run at Proqinase GmbH
Put plainly: IC50 determination, HTRF biochemical assay (Reaction Biology Corp.). The source says: (§1) Biochemical activity against class I PI3K isoforms was confirmed by either Ki determination using the non-radiometric ADP-Glo™ assay (Promega, Madison, Wis., USA) at Proqinase GmbH, or IC50 determination using the HTRF biochemical assay at Reaction Biology Corp.

A further data set concerns the target T2, PI3K p110β (Homo sapiens, UniProt P42338).
T2 construct: assay run at Proqinase GmbH
Described as above.
From the text: as §1

The next data set concerns the target T3, PI3K p110γ (Homo sapiens, UniProt P48736).
T3 construct: assay run at Proqinase GmbH
The data set is described as above.
From the text: as §1

Another data set concerns the target T4, PI3K p110δ (Homo sapiens, UniProt O00329).
T4 construct: assay run at Proqinase GmbH
Described as above.
From the text: as §1

Setting [2] is: IV, 5 mg/kg, male CD1 mouse plasma.

One may read the clearance as the rate of elimination divided by the concentration. Usually bioavailability stands for the share of a dose that reaches the circulation, judged against a reference dose that is usually intravenous. The term IC50 denotes the concentration at which inhibition is half-maximal.

Bounds are passed on as bounds.

T4 sequence (O00329 whole entry): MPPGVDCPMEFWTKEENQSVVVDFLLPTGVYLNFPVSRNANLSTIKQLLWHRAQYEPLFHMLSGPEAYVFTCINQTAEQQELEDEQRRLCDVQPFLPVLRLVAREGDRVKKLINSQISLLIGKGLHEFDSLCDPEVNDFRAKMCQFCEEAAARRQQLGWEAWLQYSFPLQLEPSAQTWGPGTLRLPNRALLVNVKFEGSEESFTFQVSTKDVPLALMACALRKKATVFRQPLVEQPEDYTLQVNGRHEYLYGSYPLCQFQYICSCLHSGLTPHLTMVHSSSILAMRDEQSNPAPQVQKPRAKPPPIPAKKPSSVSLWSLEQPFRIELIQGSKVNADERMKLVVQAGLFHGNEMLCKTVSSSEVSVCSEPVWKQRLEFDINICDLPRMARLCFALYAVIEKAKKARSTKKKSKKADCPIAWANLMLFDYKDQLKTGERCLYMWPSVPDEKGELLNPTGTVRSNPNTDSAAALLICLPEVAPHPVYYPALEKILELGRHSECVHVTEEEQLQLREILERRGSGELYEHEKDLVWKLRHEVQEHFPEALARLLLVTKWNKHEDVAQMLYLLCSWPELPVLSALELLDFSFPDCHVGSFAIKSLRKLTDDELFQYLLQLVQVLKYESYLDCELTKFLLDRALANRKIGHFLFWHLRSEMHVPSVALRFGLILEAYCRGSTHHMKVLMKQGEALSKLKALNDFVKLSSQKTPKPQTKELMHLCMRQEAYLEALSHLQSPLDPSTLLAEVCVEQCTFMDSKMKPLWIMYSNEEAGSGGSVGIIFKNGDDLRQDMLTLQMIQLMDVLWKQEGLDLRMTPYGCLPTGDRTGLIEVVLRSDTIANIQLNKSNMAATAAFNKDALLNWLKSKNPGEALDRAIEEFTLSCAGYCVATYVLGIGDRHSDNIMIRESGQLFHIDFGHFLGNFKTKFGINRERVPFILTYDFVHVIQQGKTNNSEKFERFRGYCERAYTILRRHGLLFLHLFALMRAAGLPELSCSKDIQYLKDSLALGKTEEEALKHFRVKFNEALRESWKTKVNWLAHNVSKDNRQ
T4 sequence (P27986 whole entry partner): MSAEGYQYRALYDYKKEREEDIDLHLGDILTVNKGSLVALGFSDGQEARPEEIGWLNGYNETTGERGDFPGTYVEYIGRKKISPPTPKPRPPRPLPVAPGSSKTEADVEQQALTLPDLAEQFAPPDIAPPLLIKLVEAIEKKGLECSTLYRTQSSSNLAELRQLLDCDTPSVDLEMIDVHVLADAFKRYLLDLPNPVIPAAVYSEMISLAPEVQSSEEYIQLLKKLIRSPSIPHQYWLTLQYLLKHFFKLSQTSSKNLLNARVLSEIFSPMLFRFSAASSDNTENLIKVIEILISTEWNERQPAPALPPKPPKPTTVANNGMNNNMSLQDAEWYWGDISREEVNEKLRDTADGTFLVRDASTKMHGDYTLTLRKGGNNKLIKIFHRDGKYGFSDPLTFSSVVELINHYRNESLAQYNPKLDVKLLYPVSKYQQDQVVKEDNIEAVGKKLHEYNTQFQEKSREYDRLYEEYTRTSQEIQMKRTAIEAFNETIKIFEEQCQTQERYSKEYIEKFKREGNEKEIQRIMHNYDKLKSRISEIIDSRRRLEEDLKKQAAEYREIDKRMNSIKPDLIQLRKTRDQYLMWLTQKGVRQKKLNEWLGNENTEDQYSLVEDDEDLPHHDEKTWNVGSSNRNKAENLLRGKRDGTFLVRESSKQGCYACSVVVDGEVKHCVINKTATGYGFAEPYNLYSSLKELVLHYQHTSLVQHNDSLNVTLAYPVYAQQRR
T2 sequence (P42338 whole entry): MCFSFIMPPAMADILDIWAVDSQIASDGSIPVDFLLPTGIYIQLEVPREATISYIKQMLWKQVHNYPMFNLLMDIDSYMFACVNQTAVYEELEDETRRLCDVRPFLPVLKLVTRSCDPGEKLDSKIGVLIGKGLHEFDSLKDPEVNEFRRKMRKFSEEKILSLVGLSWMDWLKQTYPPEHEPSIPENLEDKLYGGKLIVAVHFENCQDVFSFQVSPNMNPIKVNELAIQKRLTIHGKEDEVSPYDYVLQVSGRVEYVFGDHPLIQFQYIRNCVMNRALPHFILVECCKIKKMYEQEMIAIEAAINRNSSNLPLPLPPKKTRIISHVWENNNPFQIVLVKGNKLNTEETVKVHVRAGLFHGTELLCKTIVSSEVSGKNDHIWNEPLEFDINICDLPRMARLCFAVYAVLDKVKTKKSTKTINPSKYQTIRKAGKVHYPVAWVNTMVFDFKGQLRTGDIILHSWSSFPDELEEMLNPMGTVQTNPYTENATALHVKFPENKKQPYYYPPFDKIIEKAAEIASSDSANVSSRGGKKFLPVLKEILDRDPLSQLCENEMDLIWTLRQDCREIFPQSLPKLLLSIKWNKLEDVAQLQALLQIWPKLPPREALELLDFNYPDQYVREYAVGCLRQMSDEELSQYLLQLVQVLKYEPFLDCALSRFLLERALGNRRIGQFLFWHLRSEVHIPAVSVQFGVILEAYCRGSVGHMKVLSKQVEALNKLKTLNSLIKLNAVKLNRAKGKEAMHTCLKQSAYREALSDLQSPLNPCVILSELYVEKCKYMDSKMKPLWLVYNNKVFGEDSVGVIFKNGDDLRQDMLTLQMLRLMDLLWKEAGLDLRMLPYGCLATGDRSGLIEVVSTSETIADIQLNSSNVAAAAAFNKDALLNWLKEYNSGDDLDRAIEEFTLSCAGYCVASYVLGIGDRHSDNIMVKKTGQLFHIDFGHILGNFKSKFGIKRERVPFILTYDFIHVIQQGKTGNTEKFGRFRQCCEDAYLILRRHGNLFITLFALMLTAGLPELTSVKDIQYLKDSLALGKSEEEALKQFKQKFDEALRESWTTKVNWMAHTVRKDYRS
T2 sequence (P27986 whole entry partner): as the sequence (P27986 whole entry partner) above
T3 sequence (P48736 whole entry): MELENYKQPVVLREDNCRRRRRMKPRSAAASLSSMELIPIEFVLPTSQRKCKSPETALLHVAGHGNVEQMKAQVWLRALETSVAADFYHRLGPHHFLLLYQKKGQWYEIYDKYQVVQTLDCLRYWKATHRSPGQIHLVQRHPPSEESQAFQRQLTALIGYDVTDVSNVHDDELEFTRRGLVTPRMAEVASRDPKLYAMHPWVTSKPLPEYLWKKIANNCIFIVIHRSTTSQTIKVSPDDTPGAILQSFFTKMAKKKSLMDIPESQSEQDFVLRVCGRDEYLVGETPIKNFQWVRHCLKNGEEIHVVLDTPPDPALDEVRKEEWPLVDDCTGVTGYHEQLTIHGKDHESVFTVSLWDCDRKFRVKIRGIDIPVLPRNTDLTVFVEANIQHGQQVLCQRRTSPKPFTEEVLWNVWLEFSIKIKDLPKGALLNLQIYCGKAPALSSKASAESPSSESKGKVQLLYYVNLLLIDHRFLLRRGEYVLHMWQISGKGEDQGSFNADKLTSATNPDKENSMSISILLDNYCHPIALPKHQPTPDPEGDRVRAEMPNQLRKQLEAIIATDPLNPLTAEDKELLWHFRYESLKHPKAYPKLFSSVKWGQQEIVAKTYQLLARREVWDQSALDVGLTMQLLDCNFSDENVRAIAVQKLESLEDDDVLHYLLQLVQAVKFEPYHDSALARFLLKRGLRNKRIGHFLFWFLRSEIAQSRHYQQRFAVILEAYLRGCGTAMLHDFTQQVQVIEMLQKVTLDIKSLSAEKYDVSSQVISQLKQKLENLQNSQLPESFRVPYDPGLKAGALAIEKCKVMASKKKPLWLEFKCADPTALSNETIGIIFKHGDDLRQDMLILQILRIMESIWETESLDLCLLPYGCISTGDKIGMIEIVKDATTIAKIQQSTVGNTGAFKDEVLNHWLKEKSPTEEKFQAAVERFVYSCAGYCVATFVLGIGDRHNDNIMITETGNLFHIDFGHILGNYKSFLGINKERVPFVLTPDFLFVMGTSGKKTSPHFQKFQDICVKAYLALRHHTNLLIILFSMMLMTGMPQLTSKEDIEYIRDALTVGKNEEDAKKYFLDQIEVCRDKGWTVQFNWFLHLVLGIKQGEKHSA
T1 sequence (P42336 whole entry): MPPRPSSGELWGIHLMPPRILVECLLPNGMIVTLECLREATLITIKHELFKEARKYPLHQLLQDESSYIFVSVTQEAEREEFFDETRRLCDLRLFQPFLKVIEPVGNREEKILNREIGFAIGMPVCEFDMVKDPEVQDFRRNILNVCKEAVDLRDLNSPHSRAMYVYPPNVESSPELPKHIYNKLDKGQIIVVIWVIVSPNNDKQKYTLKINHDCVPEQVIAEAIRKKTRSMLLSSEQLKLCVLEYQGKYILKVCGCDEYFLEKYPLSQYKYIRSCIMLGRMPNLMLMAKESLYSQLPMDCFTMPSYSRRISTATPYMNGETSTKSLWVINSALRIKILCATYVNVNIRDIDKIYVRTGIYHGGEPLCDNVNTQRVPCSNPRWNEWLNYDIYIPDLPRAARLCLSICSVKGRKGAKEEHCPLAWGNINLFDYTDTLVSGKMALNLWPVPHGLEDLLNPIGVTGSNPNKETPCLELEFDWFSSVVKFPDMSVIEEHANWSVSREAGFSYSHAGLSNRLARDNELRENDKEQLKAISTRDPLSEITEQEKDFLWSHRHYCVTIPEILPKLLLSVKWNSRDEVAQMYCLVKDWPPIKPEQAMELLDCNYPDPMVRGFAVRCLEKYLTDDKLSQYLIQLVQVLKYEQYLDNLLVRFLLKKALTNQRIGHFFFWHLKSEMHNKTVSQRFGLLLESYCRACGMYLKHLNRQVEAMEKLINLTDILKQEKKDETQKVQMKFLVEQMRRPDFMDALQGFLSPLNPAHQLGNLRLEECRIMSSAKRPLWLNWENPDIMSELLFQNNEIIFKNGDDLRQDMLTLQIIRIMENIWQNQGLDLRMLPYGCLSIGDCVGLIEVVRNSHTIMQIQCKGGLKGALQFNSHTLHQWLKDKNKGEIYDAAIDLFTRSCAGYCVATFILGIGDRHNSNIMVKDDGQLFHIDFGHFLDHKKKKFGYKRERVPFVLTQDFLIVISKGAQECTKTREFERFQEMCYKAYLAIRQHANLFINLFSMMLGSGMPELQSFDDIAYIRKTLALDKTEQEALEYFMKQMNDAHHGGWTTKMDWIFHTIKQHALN
T1 sequence (P27986 whole entry partner): as the sequence (P27986 whole entry partner) above

Take `c1cc(-c2nc(N3CCOCC3)c3oc4ncc(CN5CCCCC5)cc4c3n2)c2cc[nH]c2c1`: in data set [1] (setting [2]), the AUClast came to 1245 ng·mL·h and the clearance was found to be 66.1 mL/min/kg. Besides, in data set [1] (plasma, PO 10 mg/kg vs IV 5 mg/kg, male CD1 mouse), the bioavailability turned out to be 27.8%.

On to `CS(=O)(=O)CCNCc1cnc2oc3c(N4CCOCC4)nc(-c4cccc5[nH]ccc45)nc3c2c1` [Example AD, {[4-(1H-Indol-4-yl)-6-(morpholin-4-yl)-8-oxa-3,5,10-triazatricyclo[7.4.0.0^2^,7]trideca-1(13),2(7),3,5,9,11-hexaen-12-yl]methyl}(2-methanesulfonylethyl)amine], for which the IC50 at PI3K p110α, against PI3K p110β, against PI3K p110γ and against PI3K p110δ was not above 500 nM throughout.

Take `CCS(=O)(=O)CCN(C)Cc1cnc2oc3c(N4CCOCC4)nc(-c4cccc5[nH]ccc45)nc3c2c1` [Example AE]: the IC50 against PI3K p110α, at PI3K p110β, against PI3K p110γ and at PI3K p110δ was not above 500 nM in each case.

Regarding `c1cc(-c2nc(N3CCOCC3)c3oc4ncc(CN5CCSCC5)cc4c3n2)c2cc[nH]c2c1` [Example AF, 4-(1H-indol-4-yl)-6-(morpholin-4-yl)-12-[(thiomorpholin-4-yl)methyl]-8-oxa-3,5,10-triazatricyclo[7.4.0.0^2^,7]trideca-1(13),2(7),3,5,9,11-hexaene], the half-inhibitory concentration (IC50) at PI3K p110α is not above 500 nM; on PI3K p110β, not above 500 nM; at PI3K p110γ it was 500 to 1000 nM; against PI3K p110δ, not above 500 nM.

For the origin of these results see patent publication US10442815B2, “Tricyclic heterocyclic compounds as phosphoinositide 3-kinase inhibitors” (Karus Therapeutics Limited, priority 2015, dated 2019).
